# From ChEMBL document CHEMBL1201862, “PubChem BioAssay data set” (2004)
# Activity calls are given as the source filed them.
# Assays:
# Fatty acid synthase [1] = target: T1, Fatty acid synthase (Homo sapiens, UniProt P49327); assay: FAS thioesterase domain inhibitors, dose response, biochemical, endpoint fluorescence intensity, uHTS hits (AID 624327); assay type: functional;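 note: fluorescence from hydrolysis of an O-methyl fluorescein acyl ester substrate by the enzyme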
# Fatty acid synthase [2] = target: T1, Fatty acid synthase; assay: FAS thioesterase domain inhibitors, dose response, biochemical, kinetic fluorescence intensity (AID 624326); assay type: functional;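 note: rate of fluorescence rise from hydrolysis of a fluorogenic O-methyl fluorescein ester substrate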
# Aminopeptidase N = target: T2, Aminopeptidase N (Plasmodium falciparum FcB1/Columbia, UniProt O96935); assay: P. falciparum M1AAP inhibitors, biochemical, fluorogenic H-Leu-NHMec substrate, 1536-well (AID 1445); design: species or system Plasmodium falciparum 3D7, 3D7
# T2 sequence (O96935 whole entry): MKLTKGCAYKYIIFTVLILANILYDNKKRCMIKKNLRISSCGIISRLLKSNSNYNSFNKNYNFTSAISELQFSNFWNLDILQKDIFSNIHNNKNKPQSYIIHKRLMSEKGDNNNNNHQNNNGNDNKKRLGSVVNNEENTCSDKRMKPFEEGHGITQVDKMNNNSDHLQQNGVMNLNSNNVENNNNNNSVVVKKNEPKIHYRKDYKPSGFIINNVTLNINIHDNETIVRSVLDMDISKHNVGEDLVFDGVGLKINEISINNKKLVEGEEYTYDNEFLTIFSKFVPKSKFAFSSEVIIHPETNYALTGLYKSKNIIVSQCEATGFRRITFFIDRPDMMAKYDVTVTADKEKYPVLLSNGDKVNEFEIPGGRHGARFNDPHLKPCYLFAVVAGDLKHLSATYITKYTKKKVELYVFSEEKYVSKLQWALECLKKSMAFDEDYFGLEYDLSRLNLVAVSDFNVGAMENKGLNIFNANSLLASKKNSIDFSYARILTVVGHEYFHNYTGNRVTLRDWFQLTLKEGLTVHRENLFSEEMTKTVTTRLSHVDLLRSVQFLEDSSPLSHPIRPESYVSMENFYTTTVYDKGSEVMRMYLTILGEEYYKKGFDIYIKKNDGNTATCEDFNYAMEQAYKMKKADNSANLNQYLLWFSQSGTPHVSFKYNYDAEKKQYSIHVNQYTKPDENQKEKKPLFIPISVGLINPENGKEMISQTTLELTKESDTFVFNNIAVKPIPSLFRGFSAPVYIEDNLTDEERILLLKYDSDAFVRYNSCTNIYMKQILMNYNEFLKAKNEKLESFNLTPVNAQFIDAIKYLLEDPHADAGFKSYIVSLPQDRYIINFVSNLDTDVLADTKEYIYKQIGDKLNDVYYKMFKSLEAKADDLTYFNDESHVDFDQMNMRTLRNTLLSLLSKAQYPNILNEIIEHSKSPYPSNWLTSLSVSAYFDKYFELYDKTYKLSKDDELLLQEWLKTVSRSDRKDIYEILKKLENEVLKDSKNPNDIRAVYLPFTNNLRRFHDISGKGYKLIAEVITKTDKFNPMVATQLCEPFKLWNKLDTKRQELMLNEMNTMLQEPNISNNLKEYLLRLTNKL
# [3] = target: T3, RNA-binding protein pos-1 (Caenorhabditis elegans, UniProt G5EF15); assay: inhibitors of POS-1/mex-3 RNA binding, dose response, biochemical, fluorescence polarization (AID 1964);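 note: purified POS-1 fused to maltose binding protein made in E. coli; potency of compounds blocking POS-1 binding to fluorescent RNA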
# T3 sequence (G5EF15 whole entry): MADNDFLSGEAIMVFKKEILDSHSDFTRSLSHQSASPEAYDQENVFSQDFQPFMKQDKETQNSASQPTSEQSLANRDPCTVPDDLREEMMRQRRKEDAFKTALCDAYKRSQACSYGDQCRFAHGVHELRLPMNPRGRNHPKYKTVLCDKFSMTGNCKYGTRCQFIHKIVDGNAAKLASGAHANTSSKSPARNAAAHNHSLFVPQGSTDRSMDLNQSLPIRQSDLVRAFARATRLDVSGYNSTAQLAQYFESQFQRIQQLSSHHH
# [4] = target: T4, Zinc finger protein mex-5 (Caenorhabditis elegans, UniProt Q9XUB2); assay: MEX-5/TCR-2 RNA interaction inhibitors, dose response, biochemical, C. elegans, fluorescence polarization (AID 1960)
# T4 sequence (Q9XUB2 whole entry): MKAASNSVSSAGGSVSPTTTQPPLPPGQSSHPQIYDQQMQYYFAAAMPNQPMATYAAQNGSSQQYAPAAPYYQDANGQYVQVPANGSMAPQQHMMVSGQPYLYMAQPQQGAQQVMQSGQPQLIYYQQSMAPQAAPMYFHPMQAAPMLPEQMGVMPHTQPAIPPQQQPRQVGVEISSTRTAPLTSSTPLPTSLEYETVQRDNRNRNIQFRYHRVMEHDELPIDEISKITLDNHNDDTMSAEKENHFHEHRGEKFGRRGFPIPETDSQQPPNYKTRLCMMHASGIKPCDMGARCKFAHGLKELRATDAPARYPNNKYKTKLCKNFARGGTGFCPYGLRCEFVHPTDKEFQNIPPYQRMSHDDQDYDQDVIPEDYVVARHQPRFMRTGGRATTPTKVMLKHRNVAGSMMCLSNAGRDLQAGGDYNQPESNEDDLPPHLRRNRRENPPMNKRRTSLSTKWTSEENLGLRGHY
# [5] = target: T5, DNA repair protein RAD52 homolog (Homo sapiens, UniProt P43351); assay type: functional, biochemical
# T5 sequence (P43351 whole entry): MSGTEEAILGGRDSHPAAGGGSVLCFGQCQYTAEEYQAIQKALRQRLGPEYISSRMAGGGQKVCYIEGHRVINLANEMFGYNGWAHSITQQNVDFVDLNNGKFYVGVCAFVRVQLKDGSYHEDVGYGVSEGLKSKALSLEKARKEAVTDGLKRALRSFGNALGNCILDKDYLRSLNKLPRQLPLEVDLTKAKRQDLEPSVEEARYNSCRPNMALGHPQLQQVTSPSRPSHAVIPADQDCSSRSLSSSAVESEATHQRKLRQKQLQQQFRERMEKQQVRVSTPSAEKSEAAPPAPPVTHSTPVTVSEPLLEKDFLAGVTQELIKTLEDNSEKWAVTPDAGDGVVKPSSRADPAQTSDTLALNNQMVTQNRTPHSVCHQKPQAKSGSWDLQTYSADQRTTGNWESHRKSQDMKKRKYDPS
# [6] = target: T6, DNA repair and recombination protein RAD54-like (Homo sapiens, UniProt Q92698); assay: inhibitors of human RAD54 branch migration, confirmation, biochemical, fluorescence, cherry-picked samples, dose series (AID 651657); assay type: functional
# T6 sequence (Q92698 whole entry): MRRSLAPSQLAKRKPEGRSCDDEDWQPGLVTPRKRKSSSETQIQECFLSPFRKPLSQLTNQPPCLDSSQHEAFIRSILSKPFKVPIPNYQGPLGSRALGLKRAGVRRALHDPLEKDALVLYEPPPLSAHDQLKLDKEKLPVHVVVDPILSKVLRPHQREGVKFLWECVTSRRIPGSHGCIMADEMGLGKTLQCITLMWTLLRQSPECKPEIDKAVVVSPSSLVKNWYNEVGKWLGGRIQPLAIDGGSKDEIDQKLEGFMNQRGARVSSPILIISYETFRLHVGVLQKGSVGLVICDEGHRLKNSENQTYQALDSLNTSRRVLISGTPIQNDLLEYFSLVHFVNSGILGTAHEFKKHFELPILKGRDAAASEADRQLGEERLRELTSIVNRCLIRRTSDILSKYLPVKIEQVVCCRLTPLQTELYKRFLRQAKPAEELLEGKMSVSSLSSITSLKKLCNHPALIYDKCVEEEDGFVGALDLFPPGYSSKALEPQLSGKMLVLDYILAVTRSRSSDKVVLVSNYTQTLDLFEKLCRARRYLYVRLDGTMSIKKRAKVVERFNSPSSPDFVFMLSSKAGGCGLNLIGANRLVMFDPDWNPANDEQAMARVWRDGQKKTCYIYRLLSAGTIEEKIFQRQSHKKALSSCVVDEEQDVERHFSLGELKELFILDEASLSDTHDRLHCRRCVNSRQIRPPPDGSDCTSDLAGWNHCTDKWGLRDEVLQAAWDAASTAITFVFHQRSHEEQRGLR
# Protein skinhead-1 = target: T7, Protein skinhead-1 (Caenorhabditis elegans, UniProt P34707); assay type: functional
# T7 sequence (P34707 whole entry): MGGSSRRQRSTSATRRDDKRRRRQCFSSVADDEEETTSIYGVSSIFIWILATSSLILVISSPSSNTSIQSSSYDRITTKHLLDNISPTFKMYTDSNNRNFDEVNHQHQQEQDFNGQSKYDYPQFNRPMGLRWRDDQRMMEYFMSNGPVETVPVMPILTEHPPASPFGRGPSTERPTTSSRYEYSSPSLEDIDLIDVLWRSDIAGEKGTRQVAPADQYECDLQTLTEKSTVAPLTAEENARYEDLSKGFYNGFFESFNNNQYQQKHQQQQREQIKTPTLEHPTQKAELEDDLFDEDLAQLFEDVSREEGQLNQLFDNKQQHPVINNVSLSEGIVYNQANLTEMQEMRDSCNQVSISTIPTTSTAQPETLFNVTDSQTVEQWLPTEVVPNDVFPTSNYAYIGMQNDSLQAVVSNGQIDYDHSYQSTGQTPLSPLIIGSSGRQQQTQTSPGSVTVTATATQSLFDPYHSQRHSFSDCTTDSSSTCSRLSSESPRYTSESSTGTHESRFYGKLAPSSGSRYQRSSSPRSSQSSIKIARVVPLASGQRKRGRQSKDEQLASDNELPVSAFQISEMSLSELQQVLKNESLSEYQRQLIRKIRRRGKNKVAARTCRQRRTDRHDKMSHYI
# [7] = cytotoxicity in HEK-293T cells, dose response, cytotoxicity control for BCR NF-kB inhibitor project, luminescence, B-cell screen hits (AID 489021); assay type: functional, cell-based;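 note: HEK-293T cells carrying an NF-kB luciferase reporter; cells exposed to compound for about 14 hours before viability readout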
# [8] = inhibitors of clade B AD8 Env fusion, dose response, cell-based, cherry-pick (AID 652062); assay type: functional;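 note: luciferase signal from cell-cell fusion driven by HIV-1 clade B AD8 Env; potency is for inhibitors of fusion seen as a drop in luminescence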
# [9] = ZM109 Env clade C HIV-1 fusion inhibitors, dose response, HeLa effector, CEM target cells, luciferase, cherry-pick (AID 652058); assay type: functional, cell-based
# Cytochrome P450 2C9 = Cytochrome P450 2C9 (Homo sapiens, UniProt P11712)
# Chain of Cytochrome P450 2C9 (P11712 whole entry, the tested form may be a part): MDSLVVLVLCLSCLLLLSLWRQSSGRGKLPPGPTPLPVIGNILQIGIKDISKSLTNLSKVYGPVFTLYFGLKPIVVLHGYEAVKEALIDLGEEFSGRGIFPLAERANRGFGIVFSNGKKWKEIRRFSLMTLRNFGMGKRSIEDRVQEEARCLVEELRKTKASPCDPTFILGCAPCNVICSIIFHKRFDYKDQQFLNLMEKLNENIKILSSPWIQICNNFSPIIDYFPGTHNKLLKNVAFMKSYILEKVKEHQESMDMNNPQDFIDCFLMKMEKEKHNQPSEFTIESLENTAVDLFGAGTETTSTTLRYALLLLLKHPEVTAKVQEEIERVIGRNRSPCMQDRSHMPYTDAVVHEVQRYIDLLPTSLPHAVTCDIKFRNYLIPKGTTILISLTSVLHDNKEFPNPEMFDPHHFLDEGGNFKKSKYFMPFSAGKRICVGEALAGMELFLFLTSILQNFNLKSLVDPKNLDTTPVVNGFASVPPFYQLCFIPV
# [10] = inhibitors of HIV Env-driven cell fusion, dose response, cherry-pick (AID 652057); assay type: functional, cell-based
# [11] = target: T8, Rac GTPase-activating protein 1 (Homo sapiens, UniProt Q9H0H5); assay: MgcRacGAP GTPase-activating activity inhibitors, confirmation, biochemical, ADP Hunter fluorescence, primary and confirmatory (AID 624330); assay type: functional
# T8 sequence (Q9H0H5 whole entry): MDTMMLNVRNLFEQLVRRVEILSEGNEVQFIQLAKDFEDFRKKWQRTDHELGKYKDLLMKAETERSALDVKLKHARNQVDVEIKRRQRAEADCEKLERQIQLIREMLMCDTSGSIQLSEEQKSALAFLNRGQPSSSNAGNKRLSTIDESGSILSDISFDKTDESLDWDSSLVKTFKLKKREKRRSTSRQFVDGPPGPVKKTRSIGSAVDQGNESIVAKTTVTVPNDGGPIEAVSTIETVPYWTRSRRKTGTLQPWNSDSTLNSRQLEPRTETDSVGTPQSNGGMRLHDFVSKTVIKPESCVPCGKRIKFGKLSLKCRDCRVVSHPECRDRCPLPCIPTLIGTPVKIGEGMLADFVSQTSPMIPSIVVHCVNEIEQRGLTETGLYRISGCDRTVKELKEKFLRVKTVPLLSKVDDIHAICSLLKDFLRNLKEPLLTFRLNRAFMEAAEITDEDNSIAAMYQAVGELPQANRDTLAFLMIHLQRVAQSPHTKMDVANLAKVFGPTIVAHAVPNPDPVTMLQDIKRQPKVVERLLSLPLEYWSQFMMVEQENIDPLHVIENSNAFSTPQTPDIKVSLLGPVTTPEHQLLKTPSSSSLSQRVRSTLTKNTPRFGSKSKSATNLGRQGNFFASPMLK
# T1 sequence (P49327 whole entry, the tested form may be a part): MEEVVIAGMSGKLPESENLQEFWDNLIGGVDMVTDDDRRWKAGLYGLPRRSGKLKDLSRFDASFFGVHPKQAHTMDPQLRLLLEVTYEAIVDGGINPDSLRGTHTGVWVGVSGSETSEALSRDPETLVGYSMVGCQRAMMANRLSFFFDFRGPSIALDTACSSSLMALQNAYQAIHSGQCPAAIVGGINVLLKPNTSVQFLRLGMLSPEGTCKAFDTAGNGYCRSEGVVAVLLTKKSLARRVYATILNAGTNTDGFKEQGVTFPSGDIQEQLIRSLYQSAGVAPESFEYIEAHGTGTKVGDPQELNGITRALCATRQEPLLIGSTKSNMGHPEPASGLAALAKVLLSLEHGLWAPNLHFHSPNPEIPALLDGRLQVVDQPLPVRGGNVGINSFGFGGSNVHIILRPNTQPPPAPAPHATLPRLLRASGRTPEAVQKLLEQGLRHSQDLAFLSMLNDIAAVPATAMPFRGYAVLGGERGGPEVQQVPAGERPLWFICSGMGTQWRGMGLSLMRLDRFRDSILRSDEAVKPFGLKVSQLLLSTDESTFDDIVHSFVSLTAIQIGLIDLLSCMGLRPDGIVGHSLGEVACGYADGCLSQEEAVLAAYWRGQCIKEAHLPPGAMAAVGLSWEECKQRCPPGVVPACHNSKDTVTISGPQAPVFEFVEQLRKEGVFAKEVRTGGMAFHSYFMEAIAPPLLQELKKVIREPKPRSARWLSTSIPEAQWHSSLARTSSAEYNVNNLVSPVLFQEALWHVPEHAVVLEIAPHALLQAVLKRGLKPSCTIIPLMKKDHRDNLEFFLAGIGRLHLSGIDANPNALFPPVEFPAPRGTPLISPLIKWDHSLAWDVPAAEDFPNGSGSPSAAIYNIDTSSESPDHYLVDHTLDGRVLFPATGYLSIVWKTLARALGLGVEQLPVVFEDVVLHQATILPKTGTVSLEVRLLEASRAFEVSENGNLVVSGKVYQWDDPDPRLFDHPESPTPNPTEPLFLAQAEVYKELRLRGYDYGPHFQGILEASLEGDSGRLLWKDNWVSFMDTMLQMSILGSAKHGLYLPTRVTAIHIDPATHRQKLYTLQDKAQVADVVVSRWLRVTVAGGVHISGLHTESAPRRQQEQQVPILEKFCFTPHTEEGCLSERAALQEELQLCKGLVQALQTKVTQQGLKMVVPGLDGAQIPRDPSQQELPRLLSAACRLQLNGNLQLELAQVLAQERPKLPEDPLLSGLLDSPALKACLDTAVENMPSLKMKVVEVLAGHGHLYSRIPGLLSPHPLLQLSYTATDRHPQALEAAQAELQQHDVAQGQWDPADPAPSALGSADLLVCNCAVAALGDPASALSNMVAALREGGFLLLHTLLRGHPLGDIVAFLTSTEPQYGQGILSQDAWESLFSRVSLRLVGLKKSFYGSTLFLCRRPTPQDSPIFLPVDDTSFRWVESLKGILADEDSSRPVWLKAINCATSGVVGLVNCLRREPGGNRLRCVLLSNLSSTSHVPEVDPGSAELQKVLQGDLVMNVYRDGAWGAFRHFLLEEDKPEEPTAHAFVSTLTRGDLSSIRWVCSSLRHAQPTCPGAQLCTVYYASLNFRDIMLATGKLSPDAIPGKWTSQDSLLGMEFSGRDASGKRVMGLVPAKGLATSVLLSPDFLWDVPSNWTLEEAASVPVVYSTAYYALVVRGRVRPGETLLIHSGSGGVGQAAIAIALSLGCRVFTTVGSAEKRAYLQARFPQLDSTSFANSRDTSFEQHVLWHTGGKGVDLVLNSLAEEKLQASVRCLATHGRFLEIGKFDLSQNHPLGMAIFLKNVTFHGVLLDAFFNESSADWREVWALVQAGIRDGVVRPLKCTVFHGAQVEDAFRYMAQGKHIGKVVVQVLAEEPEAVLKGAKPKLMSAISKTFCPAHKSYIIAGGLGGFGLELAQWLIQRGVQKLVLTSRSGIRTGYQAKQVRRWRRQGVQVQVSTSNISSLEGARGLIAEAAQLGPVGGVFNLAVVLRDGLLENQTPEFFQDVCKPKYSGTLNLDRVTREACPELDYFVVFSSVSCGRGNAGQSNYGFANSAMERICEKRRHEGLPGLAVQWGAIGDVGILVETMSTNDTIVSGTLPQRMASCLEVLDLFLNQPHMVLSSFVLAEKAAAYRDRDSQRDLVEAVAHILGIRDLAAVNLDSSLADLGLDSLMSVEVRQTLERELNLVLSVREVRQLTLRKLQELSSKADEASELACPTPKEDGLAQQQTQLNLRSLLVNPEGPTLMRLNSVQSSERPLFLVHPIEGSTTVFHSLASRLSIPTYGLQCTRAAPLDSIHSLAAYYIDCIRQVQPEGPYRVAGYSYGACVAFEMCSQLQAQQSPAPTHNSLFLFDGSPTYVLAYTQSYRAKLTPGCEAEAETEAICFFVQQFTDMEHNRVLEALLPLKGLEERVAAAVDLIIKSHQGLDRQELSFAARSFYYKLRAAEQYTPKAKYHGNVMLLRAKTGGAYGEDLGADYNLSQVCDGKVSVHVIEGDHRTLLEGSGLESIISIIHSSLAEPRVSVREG
SMILES,IC50 (Fatty acid synthase [1]),IC50 (Fatty acid synthase [2]),IC50 (Protein skinhead-1),further results
O=C(CCC(=O)Nc1ccc(Br)cc1)N/N=C/c1cc([N+](=O)[O-])ccc1O,12.9 µM (active),8.73 µM (active),,
CN1C(=O)S/C(=C/c2cccn2-c2cccc(C(=O)O)c2)C1=O,,,,IC50 (Aminopeptidase N): 84.3 µM (active); EC50 [3]: > 300 µM (not active); EC50 [4]: > 300 µM (not active)
CCCCN(CC)CCCNC(=S)Nc1ccc2nc(N3CCN(C)CC3)cc(C)c2c1,,,,AC50 [5]: 1.95 µM (active); AC50 [6]: 30.8 µM (active)
NC(=O)C1CCN(C(=O)COc2ccc3ccccc3c2Br)CC1,,,,IC50 [7]: > 80 µM (inactive)
COc1ccc(N2CCn3c2nc2c3c(=O)n(CCCc3ccccc3)c(=O)n2C)c(OC)c1,,,,AC50 [8]: 5.71 µM (active); AC50 [9]: 0.572 µM (active)
O=C(N/C(=C/c1ccccc1)C(=O)N1CCOCC1)c1ccc([N+](=O)[O-])cc1,16.8 µM (active),7.55 µM (active),,
O=C(COC(=O)c1cc([N+](=O)[O-])ccc1NCCO)c1ccccc1,8.17 µM (active),8.98 µM (active),,
Clc1ccc(Cc2nc(-c3cccnc3)no2)cc1,,,36.4 µM (active),AC50 (Cytochrome P450 2C9): 28.2 µM (inconclusive)
C[C@H](CO)N1C[C@H](C)[C@@H](CN(C)Cc2ccncc2)Oc2cc(C3=CCCCC3)ccc2S1(=O)=O,,,,AC50 [9]: 12.3 µM (active); AC50 [10]: 13.4 µM (active)
Oc1ccc(Nc2ccnc3cc(Cl)ccc23)cc1,,,,IC50 [11]: 28.1 µM (active); AC50 [6]: 80.3 µM (active)
CN(C)CCCNC(=O)/C(=C\C=C\c1ccccc1)NC(=O)c1ccc([N+](=O)[O-])cc1,0.87 µM (active),4.11 µM (active),,
CCN(CC)CCn1c2ccc(Cl)cc2c2nc(C)sc21,,,,AC50 [5]: 5.39 µM (active); AC50 [6]: 22.1 µM (active)
O=[N+]([O-])c1ccc(N2CCc3ccccc3C2)cc1,,,> 100 µM (inactive),

# Second part, led by results:
IC50 (Fatty acid synthase [1]),IC50 (Fatty acid synthase [2]),IC50 (Protein skinhead-1),SMILES,further results
2.92 µM (active),2.1 µM (active),,COc1ccc(NC(=O)COC(=O)c2cc([N+](=O)[O-])ccc2N2CCOCC2)cc1,
,,> 100 µM (inactive),CC(CCc1ccco1)NC(=O)CSc1cc(=O)n(C)c2ccccc12 (centres undefined),
,,> 100 µM (inactive),Nc1sccc1C(=O)NCc1ccccc1,
,,> 100 µM (inactive),Cc1cccc(C)c1OCC(=O)Nc1nnc(C2CCCO2)s1 (centres undefined),
8.07 µM (active),13.5 µM (active),,CN(Cc1ccccc1)C(=O)COC(=O)c1cc(Cl)nc(Cl)c1,
,,> 100 µM (inactive),CCN(CCCNC(=O)CC(C(=O)N1CCc2ccccc21)n1ccnc1)c1cccc(C)c1 (centres undefined),
,,89.2 µM (inactive),Cc1cccnc1Nc1nc(-c2ccc(F)cc2)cs1,
